The test has as its target T1, human NK1 receptors (Homo sapiens, UniProt P25103).
T1 construct: expressed in transfected cells; host or cells: CHO cells (Semliki virus expression system), membrane suspension
Put plainly: NK1 receptor binding assay, displacement of [3H]substance P. The following applies: human NK1 receptors in CHO cells (Semliki virus expression system), [3H]substance P 0.6 nM, 60 min at room temperature; for Ki: read-out: affinity to the NK-1 receptor, given as pKi (converted). The procedure: The affinity of test compounds for the NK1 receptor was evaluated at human NK1 receptors in CHO cells infected with the human NK1 receptor (using the Semliki virus expression system) and radiolabelled with [^3 H]substance P (final concentration 0.6 nM). Binding assays were performed in HEPES buffer (50 mM, pH 7.4) containing BSA (0.04 %) leupeptin (8 μg/ml), MnCl2 (3 mM) and phosphoramidon (2 μM). Binding assays consisted of 250 μl of membrane suspension (1.25×10^5 cells/assay tube), […] of buffer of displacing agent and 125 μl of [^3 H]substance P. Displacement curves were determined with at least seven concentrations of the compound. The assay tubes were incubated for 60 min at room temperature after which time the tube contents were rapidly filtered under vacuum through GF/C filters presoaked for 60 min with PEI (0.3%) with 2×2 ml washed of HEPES buffer (50 mM, pH 7.4). The radioactivity retained on the filters was measured by scintillation counting. All assays were performed in triplicate in at least 2 separate experiments.

T1 sequence (P25103 whole entry): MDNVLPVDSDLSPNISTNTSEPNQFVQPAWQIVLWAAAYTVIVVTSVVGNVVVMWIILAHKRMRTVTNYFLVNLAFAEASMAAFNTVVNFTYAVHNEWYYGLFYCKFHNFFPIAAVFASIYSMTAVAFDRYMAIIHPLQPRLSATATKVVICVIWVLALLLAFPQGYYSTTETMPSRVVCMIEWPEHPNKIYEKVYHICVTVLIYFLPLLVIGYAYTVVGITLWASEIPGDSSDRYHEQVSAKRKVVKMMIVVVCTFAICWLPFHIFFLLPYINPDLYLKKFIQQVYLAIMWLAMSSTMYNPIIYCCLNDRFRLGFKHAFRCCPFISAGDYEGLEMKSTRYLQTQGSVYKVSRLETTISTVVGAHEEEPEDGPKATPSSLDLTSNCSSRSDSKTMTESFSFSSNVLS

Turning to `Cc1cc(F)ccc1-c1nc(N2CCNCC2)ncc1C(=O)N(C)Cc1cc(C(F)(F)F)cc(C(F)(F)F)c1` [Example 84, 4-(4-Fluor-2-methyl-phenyl)-2-piperazin-1-yl-pyrimidine-5-carboxylic Acid (3,5-bis-trifluoromethyl-benzyl)-methyl-amide], the Ki is 0.724 nM. Same read-out and setting: to `CN(C)CCOc1ncc(C(=O)N(C)Cc2cc(C(F)(F)F)cc(C(F)(F)F)c2)c(-c2ccccc2Cl)n1` [Example 52, 4-(2-Chloro-phenyl)-2-(2-dimethylamino-ethoxy)-pyrimidine-5-carboxylic Acid (3,5-bis-trifluoromethyl-benzyl)-methyl-amide] belongs 3.55 nM. As for “4-(2-Chloro-phenyl)-2-(3-dimethylamino-ethoxy)-pyrimidine-5-carboxylic acid(3,5-bis-trifluoromethyl-benzyl)-methyl-amide”, the “affinity to the NK-1 receptor, given as pKi” value was found to be 8.11. Consider `CN(C)CCCOc1ncc(C(=O)N(C)Cc2cc(C(F)(F)F)cc(C(F)(F)F)c2)c(-c2ccccc2Cl)n1` [Example 53, 4-(2-Chloro-phenyl)-2-(3-dimethylamino-propoxy)-pyrimidine-5-carboxylic Acid (3,5-bis-trifluoromethyl-benzyl)-methyl-amide], for which the Ki was 1.74 nM.

As for `CN1CCN(c2ncc(C(=O)N(C)Cc3cc(C(F)(F)F)cc(C(F)(F)F)c3)c(-c3cccc4ccccc34)n2)CC1` [Example 88, 2-(4-Methyl-piperazin-1-yl)-4-naphthalen-1-yl-pyrimidine-5-carboxylic Acid (3,5-bis-trifluoromethyl-benzyl)-methyl-amide], the Ki is 2.88 nM.
